According to publication PMC7606800 (The Science of the total environment, 2020):

Molecular target: NfnB (PpNfnB) (Pseudomonas putida, UniProt Q88K59)
Assay: nitroreduction, HPLC-ICP-MS
Type: biochemical
Conditions: 4 uM substrate, 1 uM enzyme, 0.2 mM NADPH, 25 uM FMN, pH 7.0, 37 °C

O=[N+]([O-])c1ccc([As](=O)(O)O)cc1 [Nit(V), 4-nitrophenylarsonic acid]
nitroreduction, HPLC-ICP-MS: NfnB also reduces Nit(V) to p-ASA(V)
